Read-outs that look alike come from different tables or passages of the source.
Legend:
[1] = molecular target: T1, androgen receptor (AR) (Homo sapiens, UniProt P10275, T878A); assay: Degradation activity on androgen receptor in LNCaP cells (AR ELISA); assay type: cell-based; conditions: for Dmax: read-out: Max (maximum AR degradation rate)
T1 construct: host or cells: LNCaP human prostate cancer cells
T1 sequence (P10275 1-920 T878A): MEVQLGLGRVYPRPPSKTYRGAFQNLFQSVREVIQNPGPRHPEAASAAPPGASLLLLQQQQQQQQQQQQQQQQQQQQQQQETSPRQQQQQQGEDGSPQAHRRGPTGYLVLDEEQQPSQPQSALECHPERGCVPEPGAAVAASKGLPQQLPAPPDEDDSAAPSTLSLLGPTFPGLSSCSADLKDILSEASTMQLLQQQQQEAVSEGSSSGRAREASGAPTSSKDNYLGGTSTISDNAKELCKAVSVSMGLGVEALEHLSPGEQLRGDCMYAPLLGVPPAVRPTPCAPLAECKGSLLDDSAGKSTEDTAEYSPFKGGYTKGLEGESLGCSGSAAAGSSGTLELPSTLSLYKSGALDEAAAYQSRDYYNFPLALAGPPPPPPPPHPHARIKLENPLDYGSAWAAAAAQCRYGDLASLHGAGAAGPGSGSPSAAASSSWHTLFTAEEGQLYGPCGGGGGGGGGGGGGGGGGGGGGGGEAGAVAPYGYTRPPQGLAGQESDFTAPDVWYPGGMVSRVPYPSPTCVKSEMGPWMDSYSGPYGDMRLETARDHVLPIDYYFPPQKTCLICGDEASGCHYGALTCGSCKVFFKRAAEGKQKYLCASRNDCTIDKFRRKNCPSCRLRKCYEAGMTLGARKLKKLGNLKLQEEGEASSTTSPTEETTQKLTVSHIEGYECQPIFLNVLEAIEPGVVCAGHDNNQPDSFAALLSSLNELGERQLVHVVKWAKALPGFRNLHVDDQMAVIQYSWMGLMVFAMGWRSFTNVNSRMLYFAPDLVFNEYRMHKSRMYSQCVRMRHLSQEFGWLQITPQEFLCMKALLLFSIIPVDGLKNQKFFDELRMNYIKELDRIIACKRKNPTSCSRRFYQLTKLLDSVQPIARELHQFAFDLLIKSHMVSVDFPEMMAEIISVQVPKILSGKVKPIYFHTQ
Description: The plate was incubated in a 37° C., 5% CO2 cell incubator for three days. […] A blank control cell well containing 0.5% DMSO was set up. The plate was incubated in a 37° C., 5% CO2 cell incubator for 24 hours. […] The lysate was well mixed by pipetting up and down and then centrifuged at 4000 rpm at 4° C. for 10 minutes. […] The plate was sealed and incubated in a 37° C. incubator for 1 hour. […] The plate was sealed and then incubated in a 37° C. incubator for 30 minutes.

[2] = test system: LNCaP cells; assay: Inhibition of LNCaP proliferation (CellTiter-Glo); assay type: cell-based; conditions: Homo sapiens, 144 h, 0.1 nM R1881, six days; for Emax: read-out: Max (maximum proliferation inhibition rate)
Description: The plate was incubated in a 37° C., 5% CO2 cell incubator for three days. […] A blank control cell well containing 0.5% DMSO and a cell-free vehicle control well were set up. The plate was incubated in a 37° C., 5% CO2 cell incubator for six days.

[3] = 0.1 nM R1881, 24 hours, read-out: LNCaP DC50

Row | Structure (SMILES) | DC50 [1, 3] | Dmax ([1]; 0.1 nM R1881, 24 hours) | IC50 [2] | Emax [2] | DC50 ([1]; read-out: LNCaP DC50, 0.1 nM R1881, 24 hours)
1 | C[C@H]1CC2(CCN(c3ccc(C(=O)N4CCC5(CC4)CC(N4CCN(c6cccc(N7CCC(=O)NC7=O)c6)CC4)C5)cc3)CC2)CN1c1ccc(C#N)c(Cl)c1 [Example 35, (S)-2-Chloro-4-(8-(4-(2-(4-(3-(2,4-dioxotetrahydropyrimidin-1(2H)-yl)phenyl)piperazin-1-yl)-7-azaspiro[3.5]nonane-7-carbonyl)phenyl)-3-methyl-2,8-diazaspiro[4.5]decan-2-yl)benzonitrile] | 0.0052 µM | 88% | 0.031 µM | 57% | –
2 | C[C@H]1CC2(CCN(c3cnc(C(=O)N4CCC(CN5CCN(c6cccc(NC7CCC(=O)NC7=O)c6)CC5)CC4)cn3)CC2)CN1c1ccc(C#N)c(Cl)c1 (stereo partly drawn) [Example 17, 2-Chloro-4-((3S)-8-(5-(4-((4-(3-((2,6-dioxopiperidin-3-yl)amino)phenyl)piperazin-1-yl)methyl)piperidine-1-carbonyl)pyrazin-2-yl)-3-methyl-2,8-diazaspiro[4.5]decan-2-yl)benzonitrile] | – | 97% | 0.112 µM | 74% | 0.003 µM
3 | C[C@H]1CC2(CCN(c3ccc(C(=O)N4CCC(CN5CCN(c6ccc(C(=O)NC7CCC(=O)NC7=O)c(F)c6)CC5)CC4)cc3)CC2)CN1c1ccc(C#N)c(Cl)c1 (stereo partly drawn) [Example 3, 4-(4-((1-(4-((S)-2-(3-Chloro-4-cyanophenyl)-3-methyl-2,8-diazaspiro[4.5]decan-8-yl)benzoyl)piperidin-4-yl)methyl)piperazin-1-yl)-N-(2,6-dioxopiperidin-3-yl)-2-fluorobenzamide] | 0.0221 µM | 89% | 0.286 µM | 60% | –
4 | C[C@H]1CC2(CCN(c3ccc(C(=O)N4CCC(N5CC(N6CCN(c7ccc(N8CCC(=O)NC8=O)cc7)CC6)C5)CC4)cc3)CC2)CN1c1ccc(C#N)c(Cl)c1 [Example 7, (S)-2-Chloro-4-(8-(4-(4-(3-(4-(4-(2,4-dioxotetrahydropyrimidin-1(2H)-yl)phenyl)piperazin-1-yl)azetidin-1-yl)piperidine-1-carbonyl)phenyl)-3-methyl-2,8-diazaspiro[4.5]decan-2-yl)benzonitrile] | 0.001 µM | 93% | 0.0046 µM | 53% | –
5 | C[C@H]1CC2(CCN(c3ccc(C(=O)N4CCC5(CCC(N6CCN(c7ccc(N8CCC(=O)NC8=O)cc7)CC6)CC5)CC4)cc3)CC2)CN1c1ccc(C#N)c(Cl)c1 [Example 29, (S)-2-Chloro-4-(8-(4-(9-(4-(4-(2,4-dioxotetrahydropyrimidin-1(2H)-yl)phenyl)piperazin-1-yl)-3-azaspiro[5.5]undecane-3-carbonyl)phenyl)-3-methyl-2,8-diazaspiro[4.5]decan-2-yl)benzonitrile] | 0.012 µM | 93% | 0.081 µM | 45% | –
6 | C[C@H]1CC2(CCN(c3ccc(C(=O)N4CCC5(CC4)CC(N4CCN(c6cccc(NC7CCC(=O)NC7=O)c6)CC4)C5)cc3F)CC2)CN1c1ccc(C#N)c(Cl)c1 (stereo partly drawn) [Example 36, 2-Chloro-4-((3S)-8-(4-(2-(4-(3-((2,6-dioxopiperidin-3-yl)amino)phenyl)piperazin-1-yl)-7-azaspiro[3.5]nonane-7-carbonyl)-2-fluorophenyl)-3-methyl-2,8-diazaspiro[4.5]decan-2-yl)benzonitrile] | 0.0053 µM | 97% | 0.035 µM | 57% | –
7 | C[C@H]1CC2(CCN(c3ccc(C(=O)N4CCC5(CC4)CC(N4CCN(c6ccc(N7CCC(=O)NC7=O)cc6)CC4)C5)cc3F)CC2)CN1c1ccc(C#N)c(Cl)c1 [Example 30, (S)-2-Chloro-4-(8-(4-(2-(4-(4-(2,4-dioxotetrahydropyrimidin-1(2H)-yl)phenyl)piperazin-1-yl)-7-azaspiro[3.5]nonane-7-carbonyl)-2-fluorophenyl)-3-methyl-2,8-diazaspiro[4.5]decan-2-yl)benzonitrile] | 0.0042 µM | 96% | 0.0072 µM | 52% | –
8 | C[C@H]1CC2(CCN(c3ccc(C(=O)N4CCC(CN5CCN(c6cccc(NC7CCC(=O)NC7=O)c6)CC5)CC4)cc3)CC2)CN1c1ccc(C#N)c(C(F)(F)F)c1 (stereo partly drawn) [Example 41, 4-((3S)-8-(4-(4-((4-(3-((2,6-Dioxopiperidin-3-yl)amino)phenyl)piperazin-1-yl)methyl)piperidine-1-carbonyl)phenyl)-3-methyl-2,8-diazaspiro[4.5]decan-2-yl)-2-(trifluoromethyl)benzonitrile] | 0.0171 µM | 96% | 0.098 µM | 56% | –
9 | C[C@H]1CC2(CCN(c3ccc(C(=O)N4CCC(CN5CCC(c6ccc(NC7CCC(=O)NC7=O)cc6F)CC5)CC4)cc3)CC2)CN1c1ccc(C#N)c(Cl)c1 (stereo partly drawn) [Example 27, 2-Chloro-4-((3S)-8-(4-(4-((4-(4-((2,6-dioxopiperidin-3-yl)amino)-2-fluorophenyl)piperidin-1-yl)methyl)piperidine-1-carbonyl)phenyl)-3-methyl-2,8-diazaspiro[4.5]decan-2-yl)benzonitrile] | 0.0077 µM | 96% | 0.0079 µM | 64% | –
10 | C[C@H]1CC2(CCN(c3ccc(C(=O)N4CC(CN5CCN(c6cccc(NC7CCC(=O)NC7=O)c6)CC5)C4)cc3)CC2)CN1c1ccc(C#N)c(Cl)c1 (stereo partly drawn) [Example 14, 2-Chloro-4-((3S)-8-(4-(3-((4-(3-((2,6-dioxopiperidin-3-yl)amino)phenyl)piperazin-1-yl)methyl)azetidine-1-carbonyl)phenyl)-3-methyl-2,8-diazaspiro[4.5]decan-2-yl)benzonitrile] | 0.0019 µM | 96% | 0.057 µM | 69% | –
11 | C[C@H]1CC2(CCN(c3ccc(C(=O)N4CCC(CN5CCN(c6ccccc6NC6CCC(=O)NC6=O)CC5)CC4)cc3)CC2)CN1c1ccc(C#N)c(Cl)c1 (stereo partly drawn) [Example 39, 2-Chloro-4-((3S)-8-(4-(4-((4-(2-((2,6-dioxopiperidin-3-yl)amino)phenyl)piperazin-1-yl)methyl)piperidine-1-carbonyl)phenyl)-3-methyl-2,8-diazaspiro[4.5]decan-2-yl)benzonitrile] | 0.0139 µM | 86% | – | – | –
12 | Cc1c(N2CCC3(CCN(c4ccc(C(=O)N5CCC(CN6CCN(c7cccc(NC8CCC(=O)NC8=O)c7)CC6)CC5)cc4)CC3)C2)ccc(C#N)c1Cl (racemic) [Example 38, (±)-2-Chloro-4-(8-(4-(4-((4-(3-((2,6-dioxopiperidin-3-yl)amino)phenyl)piperazin-1-yl)methyl)piperidine-1-carbonyl)phenyl)-2,8-diazaspiro[4.5]decan-2-yl)-3-methylbenzonitrile] | 0.0117 µM | 96% | 0.049 µM | 60% | –
13 | C[C@H]1CC2(CCN(c3ccc(C(=O)N4CCC(CN5CCN(c6ccc(C(=O)NC7CCC(=O)NC7=O)cc6)CC5)CC4)cc3)CC2)CN1c1ccc(C#N)c(Cl)c1 (stereo partly drawn) [Example 43, 4-(4-((1-(4-((S)-2-(3-Chloro-4-cyanophenyl)-3-methyl-2,8-diazaspiro[4.5]decan-8-yl)benzoyl)piperidin-4-yl)methyl)piperazin-1-yl)-N-(2,6-dioxopiperidin-3-yl)benzamide] | 0.0093 µM | 92% | – | – | –
14 | C[C@H]1CC2(CCN(c3ccc(C(=O)N4CC(CN5CCN(c6cccc(NC7CCC(=O)NC7=O)c6)CC5)C4)nn3)CC2)CN1c1ccc(C#N)c(Cl)c1 (stereo partly drawn) [Example 22, 2-Chloro-4-((3S)-8-(6-(3-((4-(3-((2,6-dioxopiperidin-3-yl)amino)phenyl)piperazin-1-yl)methyl)azetidine-1-carbonyl)pyridazin-3-yl)-3-methyl-2,8-diazaspiro[4.5]decan-2-yl)benzonitrile] | 0.0004 µM | 97% | – | – | –

Source: patent US20250129074A1, “CHIMERIC COMPOUND FOR TARGETED DEGRADATION OF ANDROGEN RECEPTOR PROTEIN, PREPARATION METHOD THEREFOR, AND MEDICAL USE THEREOF” (Jiangsu Hengrui Pharmaceuticals Co., Ltd., priority 2021, published 2025)
